From US7964232B2, “Steviol glycoside isomers” (PepsiCo, Inc., priority 2007, dated 2011)

Columns and labels:
[1] = Sweetness tasting by a panel of five people, compared with sucrose solution
Protocol: Iso-rebaudioside A from the x-ray crystallography sample of Example 3 was dissolved in water at a concentration of 1000 ppm, and was found by a panel of five people to have a sweetness intensity similar to that of a 7% sucrose solution; therefore its sweetness potency was estimated to be 70 times that of sucrose.

[2] = Stability/degradation in aqueous citric acid or citrate buffer under heat, followed by HPLC; format: physicochemical
Protocol: […] reactions were set up under identical conditions as in Example 3 except for temperatures: 43° C., 65° C., 75° C., 85° C., and 90° C. reactions were set up and followed by HPLC-MS or UV (210 nm) detection.
Two studies were performed on the pH dependency of the synthesis of iso-rebaudioside A (Cmpd X) from rebaudioside A (Reb A). Rebaudioside A was dissolved at the same concentration in a series of aqueous citric acid solutions, each having a different pH. The solutions were heated to 43° C. for 11 weeks. One study was performed with solutions at pH 2.0, 4.0, and 7.0. The other study was performed with solutions at pH 2.5, 3.0, and 3.5. Results of the two studies are shown in FIGS. 17 and 18, respectively, wherein Reb A stands for rebaudioside A and Cmpd X stands for iso-rebaudioside A. In FIG. 17, the concentration of iso-rebaudioside A at pH 2 peaks at week 9 and decreases afterwards.

[3] = cited from earlier work; for stability under acidic conditions at 60° C.: pH 2.4 to 2.6, 60° C.; for stability under acidic conditions at 100° C.: pH 2.4 to 2.6, 100° C., yields hydrolysis byproducts

Compound	sweetness intensity, equivalent sucrose solution ([1]; 1000 ppm in water, panel of five people) [% sucrose solution]	sweetness potency relative to sucrose ([1]; estimated from 1000 ppm vs 7% sucrose)	degradation in acidic solution ([2]; pH 2)	time of peak concentration before decrease (degradation) ([2]; pH 2) [week]	degradation in acidic solution ([2]; aqueous citric acid pH 2, 43° C., after week 9)	hydrolysis at elevated temperatures ([2]; citrate buffer pH 2, 43° C. to 90° C., HPLC-MS)	stability under acidic conditions at 60° C. [3]	stability under acidic conditions at 100° C. [3]
CC1=CC23CCC4C(C)(C(=O)OC5OC(CO)C(O)C(O)C5O)CCCC4(C)C2CCC1(OC1OC(CO)C(O)C(OC2OC(CO)C(O)C(O)C2O)C1OC1OC(CO)C(O)C(O)C1O)C3 (stereo not shown) [iso-rebaudioside A]	~7	70 times that of sucrose	degraded/hydrolyzed into other steviol glycoside isomers	9				
C=C1C[C@@]23CC[C@H]4[C@@](C)(CCC[C@@]4(C)C(=O)O[C@@H]4O[C@H](CO)[C@@H](O)[C@H](O)[C@H]4O)[C@@H]2CC[C@]1(O[C@@H]1O[C@H](CO)[C@@H](O)[C@H](O[C@@H]2O[C@H](CO)[C@@H](O)[C@H](O)[C@H]2O)[C@H]1O[C@@H]1O[C@H](CO)[C@@H](O)[C@H](O)[C@H]1O)C3 [rebaudioside A]					continues to decrease after week 9	extensive hydrolysis occurred	quite stable	undergo drastic changes
C=C1C[C@@]23CC[C@H]4[C@@](C)(CCC[C@@]4(C)C(=O)O[C@@H]4O[C@H](CO)[C@@H](O)[C@H](O)[C@H]4O)[C@@H]2CC[C@]1(O[C@@H]1O[C@H](CO)[C@@H](O)[C@H](O)[C@H]1O[C@@H]1O[C@H](CO)[C@@H](O)[C@H](O)[C@H]1O)C3 [stevioside]							quite stable	undergo drastic changes
